Measured values: ChEMBL document CHEMBL1201862, “PubChem BioAssay data set” (2004)
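Interpolation was linear, between the two tested concentrations surrounding the appropriate level; five concentrations were tested over 48 hours in 96-well plates. GI50 marks 50% less growth.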 Active and inactive are the calls of the source. Cut-off read from the data, not from the text of the source: active = GI50 up to about 1.1 µM and inactive = higher.

Tests used:
Test in all cases: NCI-60 cell line screen, 48 h
SW-620 = system: SW-620
HCT-116 = system: HCT-116
ACHN = system: ACHN
SK-MEL-2 = system: SK-MEL-2
KM12 = system: KM12
SF-539 = system: SF-539
NCI-H460 = system: NCI-H460
A498 = system: A498
UO-31 = system: UO-31
EKVX = system: EKVX
HOP-62 = system: HOP-62
TK-10 = system: TK-10
RPMI-8226 = system: RPMI-8226
CAKI-1 = system: CAKI-1
M14 = system: M14
HL-60 = system: HL-60

Compound | GI50 (SW-620) | GI50 (HCT-116) | GI50 (ACHN) | GI50 (SK-MEL-2) | GI50 (KM12) | GI50 (SF-539) | GI50 (NCI-H460) | GI50 (A498) | GI50 (UO-31) | GI50 (EKVX) | GI50 (HOP-62) | GI50 (TK-10) | GI50 (RPMI-8226) | GI50 (CAKI-1) | GI50 (M14) | GI50 (HL-60)
NC(=S)N/N=C1\C(=O)N(CCc2ccccc2)C(=O)C1C(=O)NCCc1ccccc1 (stereo not given) | > 100 µM (inactive) | > 100 µM (inactive) | > 100 µM (inactive) | > 100 µM (inactive) | > 100 µM (inactive) | > 100 µM (inactive) | > 100 µM (inactive) | > 100 µM (inactive) | > 100 µM (inactive) | > 100 µM (inactive) | > 100 µM (inactive) | > 100 µM (inactive) | > 100 µM (inactive) | > 100 µM (inactive) | > 100 µM (inactive) | 
O=c1c2ccccc2c2nc3ccccc3nc2n1C1CCCCC1 | > 100 µM (inactive) | > 100 µM (inactive) | > 100 µM (inactive) | > 100 µM (inactive) | > 100 µM (inactive) | > 100 µM (inactive) |  |  | > 100 µM (inactive) | > 100 µM (inactive) |  | > 100 µM (inactive) | > 100 µM (inactive) | > 100 µM (inactive) |  | 
CCOC(=O)CN(c1ccccc1)c1nc(=[N+](C)C)ss1 | 53.1 µM (inactive) | 5.65 µM (inactive) | 35.7 µM (inactive) | 19.8 µM (inactive) |  | 40.1 µM (inactive) |  | 42.5 µM (inactive) | 23.7 µM (inactive) |  | 33 µM (inactive) | 47.4 µM (inactive) | 1.19 µM (inactive) | 50.9 µM (inactive) | 32.4 µM (inactive) | 13.1 µM (inactive)
CN(CC1NCCCC1O)C12CC3CC(CC(C3)C1)C2 (stereo not given) | > 100 µM (inactive) |  | > 100 µM (inactive) |  | > 100 µM (inactive) | > 100 µM (inactive) | > 100 µM (inactive) | > 100 µM (inactive) | > 100 µM (inactive) | > 100 µM (inactive) | > 100 µM (inactive) | > 100 µM (inactive) | > 100 µM (inactive) | > 100 µM (inactive) | > 100 µM (inactive) | > 100 µM (inactive)
COc1cc(Cl)c2c3c(c(C(=O)c4ccccc4)oc13)CCC2 | > 100 µM (inactive) | > 100 µM (inactive) | > 100 µM (inactive) |  |  | > 100 µM (inactive) | > 100 µM (inactive) | > 100 µM (inactive) |  | > 100 µM (inactive) | > 100 µM (inactive) | > 100 µM (inactive) | > 100 µM (inactive) | > 100 µM (inactive) | > 100 µM (inactive) | 53.6 µM (inactive)
COC(=O)C1=C(C(=O)OC)C2(c3ccccc3)OC1(c1ccccc1)c1cc3ccccc3cc12 | 1.76 µM (inactive) |  | 1.68 µM (inactive) | 1.64 µM (inactive) | 1.97 µM (inactive) | 1.67 µM (inactive) | 3.56 µM (inactive) |  | 1.42 µM (inactive) | 1.8 µM (inactive) | 13.3 µM (inactive) | 2.05 µM (inactive) | 0.764 µM (active) | 1.29 µM (inactive) | 1.79 µM (inactive) | 0.45 µM (active)
CCc1ccccc1NC(=O)CC1NC(=O)CS1 (stereo not given) | > 100 µM (inactive) | > 100 µM (inactive) |  | > 100 µM (inactive) | > 100 µM (inactive) | > 100 µM (inactive) | > 100 µM (inactive) | > 100 µM (inactive) | > 100 µM (inactive) | > 100 µM (inactive) | > 100 µM (inactive) | > 100 µM (inactive) | > 100 µM (inactive) | > 100 µM (inactive) | > 100 µM (inactive) | > 100 µM (inactive)
c1ccc(C(c2ccccc2)c2ccccn2)cc1 | > 100 µM (inactive) | > 100 µM (inactive) | > 100 µM (inactive) | > 100 µM (inactive) | > 100 µM (inactive) | > 100 µM (inactive) | > 100 µM (inactive) | > 100 µM (inactive) | > 100 µM (inactive) | > 100 µM (inactive) | > 100 µM (inactive) | > 100 µM (inactive) | 66.1 µM (inactive) | > 100 µM (inactive) | > 100 µM (inactive) | 
Cc1c2n(c(=O)[nH]c1=O)C1OC(CO)C(N=[N+]=[N-])C1O2 (stereo not given) | > 100 µM (inactive) | > 100 µM (inactive) | > 100 µM (inactive) | > 100 µM (inactive) | > 100 µM (inactive) | > 100 µM (inactive) | > 100 µM (inactive) | > 100 µM (inactive) | > 100 µM (inactive) | 55.3 µM (inactive) | > 100 µM (inactive) | > 100 µM (inactive) | > 100 µM (inactive) | > 100 µM (inactive) |  | > 100 µM (inactive)
COC(=O)c1c(N)n[nH]c1N | > 100 µM (inactive) | > 100 µM (inactive) |  | > 100 µM (inactive) | > 100 µM (inactive) | > 100 µM (inactive) | > 100 µM (inactive) | > 100 µM (inactive) | > 100 µM (inactive) | > 100 µM (inactive) | > 100 µM (inactive) | > 100 µM (inactive) | > 100 µM (inactive) | > 100 µM (inactive) | > 100 µM (inactive) | > 100 µM (inactive)
